Data taken from patent publication US11007206B2, “Cyclic boronic acid ester derivatives and therapeutic uses thereof” (Melinta Subsidiary Corp., priority 2012, dated 2021).
Several values for one entry are separate records, joined by “and”; a condition that tells them apart may be missing. Identical values can stand only once. Like-named read-outs stand apart in the source and are kept apart here.

How the values were obtained:
[1] = Plasma pharmacokinetics of Compound I after single intraperitoneal dose in Swiss-Webster mice (Example 1); assay type: in vivo; settings: mouse plasma, individual animals
Experimental: Example 1 provides a summary of three pharmacokinetic studies Compound I conducted in Swiss-webster mice. The pharmacokinetics of 5 mg/kg, 15 mg/kg and 50 mg/kg of Compound I via the intraperitoneal route were discussed.
Compound I was prepared using the method described in the U.S. Publication 2012/0040932 A1. 100 mg of Compound I was dissolved in 30% 1N NaOH to ˜pH 5.0 as a stock solution. Compound I was further diluted in 0.9% saline to achieve target concentrations.
The specifications for animals used on this study were as follows: • Species: Mouse • Strain: CFW (Swiss) • Gender: Female • Source: Harlan Laboratories (Livermore, Calif.) • Number of Animals: 33 for each dose • Body Weight Range: 18-22 g at the start of the study
After acclimation, mice were administered a single intraperitoneal dose of Compound I at 5, 15, and 50 mg/kg. Groups of three mice were sacrificed at 0.08, 0.16, 0.25, 0.33, 0.5, 0.75, 1.0, 2.0, 3.0, and 4.0 h after dosing. Blood samples (one sample per animal) were collected by cardiac puncture in a heparin containing tube. Blood samples were centrifuged within 5 min of collection at 12000 g for 5 min to obtain plasma. The plasma samples were stored on −80° C. until analyzed.
Compound I standard curves were prepared in plasma from 0.1 to 100 μg/mL. 50 μl aliquots of sample were placed in 1.5 mL microcentrifuge tubes. 20 μl of Compound II (10 μg/mL) was added as internal standard to each sample or standard. 20 μl of 30% trichloroacetic acid was then added to each sample or standard. The samples were mixed using a vortex mixer centrifuged for 10 min at 15,000 RPM using a tabletop centrifuge. The supernatant (approx. […]) was removed and added to 100 μl of water in a 96-well plate. The samples were mixed again using a vortex mixer. 10 μl of each sample was injected onto an HPLC-MS for quantification.
The HPLC-MS conditions for plasma analysis are as follows: • Column: Phenomenex Fusion-RP or equivalent reversed-phase column, 5 um, 50×2 mm. • Flow rate: 0.6 mL/min. • Mobile phase A: 0.1% formic acid in water. • Mobile phase B: 0.1% formic acid in acetonitrile. • Gradient: 5-60% B in 1.5 min. • Mass spectrometer: Negative ion mode with electrospray ionization. • MS/MS: Compound I-Q1-m/e=296, Q3-m/e=234. • Compound II-Q1-m/e=331, Q3-m/e=201.
Plasma concentrations were fit using a one compartment IV infusion model (WinNonlinVersion 5.3, Pharsight Corp, and Mountain View, Calif.).

[2] = Single-dose pharmacokinetics of Compound I, intraperitoneal administration to Swiss-Webster mice (Example 5); assay type: in vivo; settings: plasma, Mouse; for CL/F: read-out: CL or CL/F (converted)
Experimental: Example 5 provides the single-dose pharmacokinetic studies of Compound I inpreclinical species, including intraperitoneal administration to Swiss-Webster mice and intravaneous administration to Sprague-Dawley rats, Beagle dogs, and Cynomologus monkeys.
Intravaneous doses of Compound I were administered as 30-minute infusions. The pharmacokinetics of Compound I were also studied with coadministration of the carbapenem, Biapenem. Compound I concentrations were determined using an LC-MS detection method.

With `O=C(O)C[C@@H]1CC[C@H](NC(=O)Cc2cccs2)B(O)O1` [Compound I] the “Calc. Conc. (plasma concentration)” value ([1]; 5 mg/kg intraperitoneal, samples m.p. 9.x = 9th time point (3.0 h), 5 mg/kg) was 0.0103 µg/mL and 0.0354 µg/mL and 0.00806 µg/mL, the “Calc. Conc. (plasma concentration)” value ([1]; 5 mg/kg intraperitoneal, samples m.p. 10.x = 10th time point (4.0 h), 5 mg/kg) was 0.00577 µg/mL and 0.00418 µg/mL and the “Calc. Conc. (plasma concentration)” value ([1]; 15 mg/kg intraperitoneal, samples m.p. 1.x = 1st time point (0.08 h), 15 mg/kg) was 9.67 µg/mL. The “Calc. Conc. (plasma concentration)” value ([1]; 15 mg/kg intraperitoneal, samples m.p. 2.x = 2nd time point (0.16 h), 15 mg/kg) was 8.58 µg/mL, the “Calc. Conc. (plasma concentration)” value ([1]; 15 mg/kg intraperitoneal, samples m.p. 3.x = 3rd time point (0.25 h), 15 mg/kg) was 9.53 µg/mL and 5.59 µg/mL and 14.3 µg/mL and the “Calc. Conc. (plasma concentration)” value ([1]; 15 mg/kg intraperitoneal, samples m.p. 4.x = 4th time point (0.33 h), 15 mg/kg) was 5.6 µg/mL and 12.3 µg/mL and 4.44 µg/mL. For the same molecule, the “Calc. Conc. (plasma concentration)” value ([1]; 15 mg/kg intraperitoneal, samples m.p. 5.x = 5th time point (0.5 h), 15 mg/kg) was 4.07 µg/mL and 3.52 µg/mL and 7.05 µg/mL, the “Calc. Conc. (plasma concentration)” value ([1]; 15 mg/kg intraperitoneal, samples m.p. 6.x = 6th time point (0.75 h), 15 mg/kg) was 0.0261 µg/mL and 3.72 µg/mL and 2.99 µg/mL and the “Calc. Conc. (plasma concentration)” value ([1]; 15 mg/kg intraperitoneal, samples m.p. 7.x = 7th time point (1.0 h), 15 mg/kg) was 0.534 µg/mL and 2.28 µg/mL and 1.61 µg/mL. The “Calc. Conc. (plasma concentration)” value ([1]; 15 mg/kg intraperitoneal, samples m.p. 8.x = 8th time point (2.0 h), 15 mg/kg) was 0.145 µg/mL and 0.0926 µg/mL, the “Calc. Conc. (plasma concentration)” value ([1]; 15 mg/kg intraperitoneal, samples m.p. 9.x = 9th time point (3.0 h), 15 mg/kg) was <0 ug/mL (2×) and 0.0178 ug/mL and the “Calc. Conc. (plasma concentration)” value ([1]; 50 mg/kg intraperitoneal, samples m.p. 1.x = 1st time point (0.08 h), 50 mg/kg) was 39.4 µg/mL and 26.6 µg/mL. For the same molecule, the “Calc. Conc. (plasma concentration)” value ([1]; 50 mg/kg intraperitoneal, samples m.p. 2.x = 2nd time point (0.16 h), 5x dil., 50 mg/kg) was 64.7 µg/mL and 57.7 µg/mL and 58.9 µg/mL, the “Calc. Conc. (plasma concentration)” value ([1]; 50 mg/kg intraperitoneal, samples m.p. 3.x = 3rd time point (0.25 h), 5x dil., 50 mg/kg) was 56.8 µg/mL and 61.7 µg/mL and 64.2 µg/mL and the “Calc. Conc. (plasma concentration)” value ([1]; 50 mg/kg intraperitoneal, samples m.p. 4.x = 4th time point (0.33 h), 50 mg/kg) was 42.1 µg/mL and 43.6 µg/mL and 135 µg/mL. For the same molecule, the “Calc. Conc. (plasma concentration)” value ([1]; 50 mg/kg intraperitoneal, samples m.p. 5.x = 5th time point (0.5 h), 50 mg/kg) was 34.7 µg/mL and 27.0 µg/mL and 4.06 µg/mL, the “Calc. Conc. (plasma concentration)” value ([1]; 50 mg/kg intraperitoneal, samples m.p. 6.x = 6th time point (0.75 h), 50 mg/kg) was 11.4 µg/mL and 15.0 µg/mL and the “Calc. Conc. (plasma concentration)” value ([1]; 50 mg/kg intraperitoneal, samples m.p. 7.x = 7th time point (1.0 h), 50 mg/kg) was 9.26 µg/mL and 2.33 µg/mL and 1.40 µg/mL. The “Calc. Conc. (plasma concentration)” value ([1]; 50 mg/kg intraperitoneal, samples m.p. 8.x = 8th time point (2.0 h), 50 mg/kg) was 0.555 µg/mL and 1.30 µg/mL and 0.582 µg/mL, the “Calc. Conc. (plasma concentration)” value ([1]; 50 mg/kg intraperitoneal, samples m.p. 9.x = 9th time point (3.0 h), 50 mg/kg) was 0.120 µg/mL and 0.105 µg/mL and the “Calc. Conc. (plasma concentration)” value ([1]; 50 mg/kg intraperitoneal, samples m.p. 10.x = 10th time point (4.0 h), 50 mg/kg) was 0.0471 µg/mL and 0.143 µg/mL and 0.199 µg/mL. It also gave an AUC ([2]; 5 mg/kg IP) of 3.1 µg·h/mL, a Cmax ([2]; 5 mg/kg IP) of 8.26 µg/mL and a half-life ([2]; 5 mg/kg IP) of 9.6 min. It also gave a CL/F ([2]; 5 mg/kg IP) of 1.61 L/h/kg, an AUC ([2]; 15 mg/kg IP) of 8.3 µg·h/mL and a Cmax ([2]; 15 mg/kg IP) of 19.5 µg/mL. The half-life ([2]; 15 mg/kg IP) was 12 min, the CL/F ([2]; 15 mg/kg IP) was 1.8 L/h/kg and the AUC ([2]; 50 mg/kg IP) was 31.4 µg·h/mL. For the same molecule, the Cmax ([2]; 50 mg/kg IP) was 67.1 µg/mL, the half-life ([2]; 50 mg/kg IP) was 15 min and the CL/F ([2]; 50 mg/kg IP) was 1.6 L/h/kg.
